Here are results for ten compounds from ChEMBL document CHEMBL1201862, “PubChem BioAssay data set” (2004).

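Grown in 96-well plates, cells were treated for 48 hours with each compound at five concentrations. Insufficient inhibition: endpoint recorded as highest concentration tested. At the GI50, growth is halved.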 Calls of active or inactive are those of the source. Rule as the data show it: active = GI50 up to about 1.1 µM and inactive = higher.

Test systems include LOX IMVI; MDA-N; MDA-MB-435; M14; U-251; A549; SNB-19; NCI-H460; RPMI-8226; K562; ACHN; HOP-62; OVCAR-3; OVCAR-4; MOLT-4; SK-MEL-28; SW-620; IGROV-1; SK-MEL-2; Hs-578T.
What all share (assay): inhibition of tumour cell growth, NCI panel, 48 h

As to `CN(C)Cc1cc(C(C)(C)C)cc(CN(C)C)c1O`, the GI50 in the test on LOX IMVI is 95.9 µM (inactive); with MDA-N it was > 100 µM (inactive); in the test with MDA-MB-435, > 100 µM (inactive); in the test with M14, > 100 µM (inactive); with U-251, 98.6 µM (inactive); in the test on A549, 76.6 µM (inactive). Further, the GI50 was > 100 µM (inactive) with SNB-19; 36.4 µM (inactive) with NCI-H460; > 100 µM (inactive) in the test on RPMI-8226; > 100 µM (inactive) with K562; 65.3 µM (inactive) in the test with ACHN; 68.5 µM (inactive) with HOP-62. The GI50 in the test on OVCAR-3 is 28.8 µM (inactive); in the test on OVCAR-4 it was > 100 µM (inactive); in the test with MOLT-4, 49.2 µM (inactive); in the test on SK-MEL-28, > 100 µM (inactive); in the test on SW-620 it was 66.1 µM (inactive); with IGROV-1 it was > 100 µM (inactive). The GI50 in the test on SK-MEL-2 and in the test on Hs-578T was > 100 µM (inactive) in each case.

For the compound `O=C1C/C(=N/c2ccc(Cl)cc2)C(c2ccccc2)N1c1ccccc1` (centres undefined), the GI50 is 6.05 µM (inactive) with LOX IMVI; 2.5 µM (inactive) in the test on MDA-N; 2.15 µM (inactive) in the test with MDA-MB-435; 5.9 µM (inactive) in the test on M14; 32.7 µM (inactive) in the test on U-251; 17.4 µM (inactive) with A549. Besides, the GI50 in the test on SNB-19 was 19.9 µM (inactive); in the test on NCI-H460, 29 µM (inactive); with RPMI-8226, 2.28 µM (inactive); with K562, 1.32 µM (inactive); in the test with ACHN, 6.43 µM (inactive); with HOP-62, 32.1 µM (inactive). The GI50 in the test on OVCAR-3 is 2.99 µM (inactive); with OVCAR-4, 14.3 µM (inactive); in the test on MOLT-4 it was 7.89 µM (inactive); with SK-MEL-28, 7.87 µM (inactive); with SW-620, 10.2 µM (inactive); in the test on IGROV-1, 18.2 µM (inactive). The values for the GI50 in the test on SK-MEL-2 and in the test on Hs-578T were 2.7 µM (inactive) and 6.12 µM (inactive), respectively.

For the compound `CC(=O)C(=[N+]=[N-])C(=O)NCC#N`, the GI50 in the test on LOX IMVI, in the test with MDA-N, in the test with MDA-MB-435, in the test on M14, in the test on U-251 and in the test on A549 was > 10 µM (inactive) each time. Further, the GI50 in the test on SNB-19, with NCI-H460, with RPMI-8226, in the test on K562, with ACHN and with HOP-62 was > 10 µM (inactive) throughout. The GI50 in the test with OVCAR-3, in the test with OVCAR-4, in the test on MOLT-4, in the test on SK-MEL-28, with SW-620 and in the test on IGROV-1 was > 10 µM (inactive) in each case. The GI50 in the test with SK-MEL-2 and in the test with Hs-578T was > 10 µM (inactive) throughout.

Consider `O=c1c2nn3c(=O)n(-c4ccccc4)c(=O)c3nn2c(=O)n1-c1ccccc1`, for which the GI50 in the test on LOX IMVI, in the test on MDA-N, in the test on MDA-MB-435, with M14, in the test on U-251 and in the test on A549 was > 100 µM (inactive) in each case. Moreover, the GI50 in the test with SNB-19, with NCI-H460, with RPMI-8226, with K562, in the test with ACHN and in the test with HOP-62 was > 100 µM (inactive) throughout. The GI50 in the test on OVCAR-3, in the test on OVCAR-4, in the test with MOLT-4, with SK-MEL-28, in the test with SW-620 and with IGROV-1 was > 100 µM (inactive) each time. Further, the GI50 in the test with SK-MEL-2 and in the test on Hs-578T was > 100 µM (inactive) each time.

On to `C=C1C(=O)O[C@H]2C1C[C@@H](O)/C(C)=C/CC[C@@]1(C)O[C@H]21` (some centres undefined), for which the GI50 with LOX IMVI is 9.16 µM (inactive); with MDA-N, 10.3 µM (inactive); in the test with MDA-MB-435, 8.2 µM (inactive); in the test with M14, 9.35 µM (inactive); in the test with U-251, 24.4 µM (inactive); in the test on A549, > 55.1 µM (inactive). Also, the GI50 in the test with SNB-19 is 52 µM (inactive); with NCI-H460, 22.4 µM (inactive); with RPMI-8226, 4.76 µM (inactive); in the test on K562, 6.37 µM (inactive); in the test on ACHN, 9.27 µM (inactive); in the test with HOP-62 it was > 59.6 µM (inactive). For the same compound, the GI50 in the test on OVCAR-3 is 3.27 µM (inactive); with OVCAR-4 it was 11.4 µM (inactive); in the test on MOLT-4, 6.93 µM (inactive); in the test with SK-MEL-28, 15.2 µM (inactive); in the test with SW-620 it was 4.81 µM (inactive); in the test with IGROV-1, 12.7 µM (inactive). For the same compound, the GI50 is 24.3 µM (inactive) in the test on SK-MEL-2 and 31.3 µM (inactive) in the test with Hs-578T.

For `Cc1ccnc2sc3ccccc3c(=O)c12`, the GI50 in the test with LOX IMVI was 29.5 µM (inactive); in the test with MDA-N, 39.4 µM (inactive); with MDA-MB-435, 52.6 µM (inactive); with M14, 44.9 µM (inactive); with U-251 it was 56.8 µM (inactive); in the test with SNB-19 it was 49.8 µM (inactive). Further, the GI50 is 24 µM (inactive) in the test on NCI-H460; 36.7 µM (inactive) with RPMI-8226; 42.8 µM (inactive) in the test on K562; 35.1 µM (inactive) with ACHN; 98.4 µM (inactive) in the test with HOP-62; 91.6 µM (inactive) with OVCAR-3. Further, the GI50 in the test on OVCAR-4 is > 100 µM (inactive); in the test with MOLT-4, 26 µM (inactive); in the test on SK-MEL-28, 48.9 µM (inactive); in the test with SW-620, 44.3 µM (inactive); in the test with IGROV-1, 30.7 µM (inactive); with SK-MEL-2 it was 81.1 µM (inactive). The GI50 with Hs-578T was 27.3 µM (inactive).

On to `CC(C)(C)OC(=O)N1C(C2=COc3ccccc3O2)=COc2ccccc21`, for which the GI50 in the test with LOX IMVI was 17.5 µM (inactive); with MDA-N it was 32.4 µM (inactive); with MDA-MB-435, 31.3 µM (inactive); with M14, 27.7 µM (inactive); with U-251, 32.1 µM (inactive); with A549, 32.7 µM (inactive). The GI50 with SNB-19 is 34.9 µM (inactive); in the test with NCI-H460 it was 28.9 µM (inactive); in the test on RPMI-8226 it was 13.9 µM (inactive); in the test with K562 it was 21.5 µM (inactive); in the test with ACHN, 24.7 µM (inactive); in the test with HOP-62, 15.5 µM (inactive). Also, the GI50 is 21.1 µM (inactive) with OVCAR-3; 36.8 µM (inactive) in the test on OVCAR-4; 17.1 µM (inactive) with MOLT-4; 30.1 µM (inactive) with SK-MEL-28; 24.3 µM (inactive) with SW-620; 9.75 µM (inactive) in the test with IGROV-1. In addition, the GI50 with SK-MEL-2 was 22 µM (inactive); in the test on Hs-578T it was 41.5 µM (inactive).

For the compound `O=C1c2cc3ccccc3cc2C2(c3ccc(Cl)cc3)N[C@H]3CCCC[C@@H]3N12` (some centres undefined), the GI50 is 19 µM (inactive) with LOX IMVI; 18.1 µM (inactive) in the test on MDA-N; 21.9 µM (inactive) in the test on MDA-MB-435; 2.59 µM (inactive) in the test with M14; 14.2 µM (inactive) with U-251; 9.62 µM (inactive) in the test with A549. Moreover, the GI50 was 13.7 µM (inactive) in the test with SNB-19; 14.9 µM (inactive) in the test with NCI-H460; 18.4 µM (inactive) in the test on RPMI-8226; 26.9 µM (inactive) in the test on K562; 15.2 µM (inactive) with ACHN; 6.79 µM (inactive) in the test on HOP-62. For the same compound, the GI50 is 19.4 µM (inactive) in the test with OVCAR-3; 6.34 µM (inactive) in the test on OVCAR-4; 40.4 µM (inactive) with MOLT-4; 12.3 µM (inactive) with SK-MEL-28; 17.4 µM (inactive) with SW-620; 13.3 µM (inactive) in the test on IGROV-1. Also, the GI50 was 16.4 µM (inactive) in the test on SK-MEL-2 and 11.7 µM (inactive) with Hs-578T.

In the case of `CC(C)c1[nH]nc(C(N)=O)c1/N=N/N(C)C`, the GI50 in the test on LOX IMVI was 35.7 µM (inactive); with MDA-N it was > 100 µM (inactive); in the test with MDA-MB-435 it was 82.2 µM (inactive); in the test on M14, > 100 µM (inactive); in the test on U-251 it was 49.7 µM (inactive); in the test on A549, 23.7 µM (inactive). Moreover, the GI50 in the test with SNB-19 is > 100 µM (inactive); in the test on NCI-H460, 42.5 µM (inactive); in the test with RPMI-8226, 60.7 µM (inactive); in the test with K562 it was 79.8 µM (inactive); in the test with ACHN it was 65 µM (inactive); in the test with HOP-62 it was > 100 µM (inactive). In addition, the GI50 in the test on OVCAR-3 is > 100 µM (inactive); with OVCAR-4 it was > 100 µM (inactive); in the test with MOLT-4, 31.9 µM (inactive); with SK-MEL-28, > 100 µM (inactive); in the test with SW-620 it was > 100 µM (inactive); with IGROV-1, > 100 µM (inactive). For the same compound, the figures for the GI50 in the test with SK-MEL-2 and in the test on Hs-578T were > 100 µM (inactive) and 54.7 µM (inactive), respectively.

On to `CC(=O)c1ccc2c(c1)C(=O)c1sc(C(C)=O)cc1C2=O`, for which the GI50 was 0.22 µM (active) in the test on LOX IMVI; 0.796 µM (active) in the test with MDA-N; 1.18 µM (inactive) in the test with MDA-MB-435; 0.91 µM (active) in the test on M14; 1.56 µM (inactive) with U-251; 2.59 µM (inactive) in the test with A549. For the same compound, the GI50 in the test on SNB-19 was 0.748 µM (active); with NCI-H460, 1.37 µM (inactive); with RPMI-8226, 1.74 µM (inactive); in the test on K562, 1.7 µM (inactive); in the test with ACHN it was 0.736 µM (active); in the test on HOP-62, 1.73 µM (inactive). Besides, the GI50 was 0.368 µM (active) in the test with OVCAR-3; 1.73 µM (inactive) with OVCAR-4; 0.233 µM (active) with MOLT-4; 2.25 µM (inactive) in the test with SK-MEL-28; 0.738 µM (active) in the test on SW-620; 1.07 µM (active) in the test with IGROV-1. Moreover, the GI50 in the test with SK-MEL-2 was 1.47 µM (inactive); in the test on Hs-578T, 1.46 µM (inactive).
